# Patent publication US20090297656A1, “Liquid Formulation Based On a Guanidinoacetic Acid Component” (priority 2005, published 2009)
# Where two headings read alike, the source gives them in different places.
# How the values were obtained:
# [1] = Storage stability in aqueous solution at pH 3.5 and room temperature; format: physicochemical; details: pH 3.5, room temperature
# Source text: The rate of breakdown is dependent on the pH of the solution and temperature, with the concentration not playing a role. Particularly in the acid pH region, this breakdown to creatinine proceeds very rapidly. At room temperature and pH 3.5, creatine is already more than 20% converted to creatinine after 3 days and the physiological effect is lost. A pH of 3.5 is a typical pH for, for example, a soft drink. Owing to the rapid breakdown of creatine in this environment, the use of creatine, in particular creatine monohydrate, in aqueous or moist formulations for human and animal nutrition is virtually excluded. Even the pH in the stomach of 1 to 2 can, depending on the residence time, lead to significant breakdown of creatine to form creatinine.
# According to FIG. 1, the storage stability of creatine was determined in comparison with a mixture of 4 parts by weight of guanidinoacetic acid and 6 parts by weight of betaine in aqueous solution at pH 3.5 and room temperature: whereas creatine, after 3 days, is already more than 20% converted to creatinine, in the mixture of guanidinoacetic acid and betaine under identical conditions, after 90 days, 95% of the initial amount was still detectable as guanidinoacetic acid.
# [2] = cited from earlier work
# Solubility in water = format: physicochemical; details: room temperature
# Source text: In comparison with creatine, guanidinoacetic acid has a lower solubility in water (3.8 g per liter at room temperature). […] Therefore, for example, even in half a liter of an aqueous drink, a physiologically meaningful daily dose of the guanidinoacetic acid component can be incorporated without problem.
# [3] = Stability under pasteurization or sterilization of aqueous preparations; format: physicochemical; details: in contrast to creatine
# Source text: In the production process, aqueous preparations, such as those according to the invention, also, are generally pasteurized or sterilized. […] These advantages were unexpected in this manner in their totality.
# Staphyllococcus aureus = details: animal experiments; cited from earlier work
# [4] = 0.032% guanidinoacetic acid in hens' feed
# [5] = chickens, less than 0.1% guanidinoacetic acid in the feed
compound,measurement,setting,value
"C[N+](C)(C)CC(=O)O [Betaine, betaine]",stability under the stated conditions,[1],completely stable
"CN(CC(=O)O)C(=N)N [creatine, reference compound]",converted to creatinine,[1]; after 3 days,more than 20%
same,weight gain,"[2]; chickens, 0.2% creatine in the feed",4%
N=C(N)NCC(=O)O [guanidinoacetic acid],solubility in water,Solubility in water,3.8 g per liter
same,stability under pasteurization/sterilization conditions,[3],outstanding stability
same,improved feed utilization,[2]; [4],3%
same,weight gain,[2]; [4],3%
same,lower feed consumption compared with the control group,[2]; [5],6%
same,weight gain compared with the control group,[2]; [5],7%
same,use against bacterial infections,Staphyllococcus aureus,successfully used
